According to paper PMC3996151, “Safety and pharmacological characterization of the molecular tweezer CLR01 – a broad-spectrum inhibitor of amyloid proteins’ toxicity” (BMC Pharmacology & Toxicology, 2014):
Where two headings read alike, the source gives them in different places. Marks after values point to notes of the source that are not given here.

What was measured:
[1] = design: method as in PMID 23183235; conditions: mouse liver microsomes; cited from earlier work
C57BL/6J mice [2] = experiment: Chronic toxicity: daily IP injection for 30 days, behaviour, histopathology and serum chemistry; type: in vivo, mouse; conditions: for Alanine aminotransferase / Albumin / Alkaline phosphatase / Aspartate aminotransferase / Blood urea nitrogen / Cholesterol / Creatinine / Glucose / Lactate dehydrogenase / Total bilirubin / Total protein: serum, 2-m old WT mice, chronic, 30 day, mean
Experimental: (§1) For acute-toxicity studies, 2-m old C57BL/6J mice were administered saline-vehicle, 10 mg/kg, or 100 mg/kg CLR01 by a single intraperitoneal (IP) injection. The mice were sacrificed 24-h after the injection. For chronic toxicity studies, 2-m old C57BL/6J mice were administered saline-vehicle, 3 mg/kg, or 10 mg/kg CLR01 by daily IP injection for 30 days. Acute-study mice were visually monitored for 1 h after injection and then every 50 min for 10 min over the first 6 h of the experiment for changes in activity and behavior. The mice also were monitored every 110 min for 10 min during the last 6 h of the experiment until they were sacrificed. Chronic-study mice were monitored for 1 h after injection and then 3 times a day for 10 min each, every day of the first week. During that week there were no appreciable changes in the behavior, appearance, or weight of the mice. Therefore, monitoring was reduced to twice a day during the remainder of the experiment. On all occasions, the mice were monitored for any signs of severe toxicity, including bruising or bleeding, pale mucous membranes or extremities, diarrhea, dehydration, neurological signs, such as difficulty ambulating or paralysis, tachypnea or dyspnea, or abdominal distension.
(§2) Following the treatment, mice were anesthetized with pentobarbital and blood was collected by cardiac puncture and placed in tubes containing a clot activator for serum separation (Capiject T-MG tubes, Terumo Medical Products, Somerset, NJ). Then, the lungs were filled through the trachea with 4% paraformaldehyde to prevent collapse, and tissues (brain, heart-lung, liver, kidney, and spleen) were collected and fixed for 72 h in 4% paraformaldehyde at a ratio of ~1:10 tissue:fixative (v/v). Tissues then were transferred into a 70%-ethanol solution and transferred to the UCLA Mouse Pathology Core for paraffin embedding, sectioning, and tissue histopathology analysis. Serum was analyzed by the UCLA Division of Laboratory Animal Medicine (DLAM) Animal Serology & Molecular Diagnostic Laboratory for an 11-panel serum chemical analysis using the ACE Alera Clinical Chemistry system (Alfa Wassermann Diagnostic Technologies, West Caldwell, NJ). The panel included: alanine aminotransferase, aspartate aminotransferase, albumin, alkaline phosphatase, creatinine, total bilirubin, lactate dehydrogenase, blood urea nitrogen, cholesterol, total protein, and glucose.
(§3) If CLR01 indeed operates by a process-specific mechanism and remodels the abnormal aggregation of amyloidogenic proteins at substantially lower concentrations than concentrations that would perturb normal physiological processes, one would expect the compound to have a high therapeutic index. To calculate the therapeutic index, a lethal dose must be reached. […] The next rational step was to test the safety margin of CLR01 in vivo. Based on the in vitro and cell culture data, we expected that 100 mg/kg would be lethal to mice and therefore used it as the highest dose in our safety-evaluation experiments. We assessed the safety of CLR01 in 2-m old, male, WT mice either 24 h following a single IP injection of 10 or 100 mg/kg (acute administration) or after daily IP injection of 3 or 10 mg/kg for 30 days (chronic administration). Following euthanasia, serum was collected for chemical analysis and tissues were harvested for histopathology evaluation.

[3] = Blood-brain barrier permeability with 3H-CLR01 IV (scintillation counting of blood and brain); type: in vivo, mouse; conditions: 40-μg/kg/day dose, 15-m old 3×Tg mice, estimate
transthyretin = system: transthyretin; design: method as in PMID 24459092; conditions: peripheral administration, 1.2 mg/kg/day; cited from earlier work
[4] = design: method as in PMID 23183235; conditions: mouse plasma; cited from earlier work
3×Tg mouse model of AD = system: 3×Tg mouse model of AD; design: method as in PMID 23183235; conditions: cited from earlier work
[5] = molecular target: Poly [ADP-ribose] polymerase 1 (PARP-1); design: method as in T. Schrader, unpublished results; conditions: enzyme concentration of 2.3 nM; ref T. Schrader, unpublished results; cited from earlier work
C57BL/6J mice [6] = experiment: Acute toxicity: single IP injection, behaviour, histopathology and serum chemistry after 24 h; type: in vivo, mouse; conditions: for Alanine aminotransferase / Albumin / Alkaline phosphatase / Aspartate aminotransferase / Blood urea nitrogen / Cholesterol / Creatinine / Glucose / Lactate dehydrogenase / Total bilirubin / Total protein: serum, acute, mean
Experimental: as §1, §2, §3

[7] = Solubility in aqueous solutions; type: physicochemical
[8] = daily IP 3 or 10 mg/kg for 30 days
[9] = 2-m old WT mice, 24 h after single IP dose 10 mg/kg, N = 8
[10] = 2-m old WT mice, 24 h after single IP dose 100 mg/kg, N = 8
[11] = 2-m old WT mice, 24 h after single IP dose 100 mg/kg, N = 8, p < 0.001 vs control
[12] = 2-m old WT mice, 24 h after single IP dose 100 mg/kg, N = 8, p < 0.01 vs control

For O=P(O)(O)Oc1c2c(c(OP(=O)(O)O)c3c1C1CC3c3cc4c(cc31)C1CC4c3ccccc31)C1CC2c2cc3c(cc21)C1CC3c2ccccc21 [CLR01], the Stability [1] is given as 100%, the “Chronically administered dose without toxicity relative to the efficacious dose of 40 μg/kg/day” value (C57BL/6J mice [2]; 10 mg/kg/day) is given as 250 times and the Liver histopathology (C57BL/6J mice [2]; daily IP 3 mg/kg for 30 days, a few mice, judged not pathogenic and unlikely related to treatment) is given as “mild-to-moderate multifocal extramedullary hematopoiesis in the liver”. For the same molecule, the Pancreas finding (C57BL/6J mice [2]; daily IP 3 mg/kg for 30 days, two mice, unlikely related to treatment) was “Mild pancreatitis”, the “Reduction in blood cholesterol compared to the control group” value (C57BL/6J mice [2]; daily IP 10 mg/kg for 30 days) was ~ 40% and the Tissue histopathology (C57BL/6J mice [2]; daily IP 10 mg/kg for 30 days) was “no signs of tissue pathology or liver necrosis”. For the same molecule, the “Behavior (levels and type of activity and grooming)” value (C57BL/6J mice [2]; [8]) was “behaved indistinguishably from control mice”, the “Histopathology of heart, lung, spleen and brain” value (C57BL/6J mice [2]; [8]) was “indistinguishable from vehicle-treated mice” and the Alanine aminotransferase (C57BL/6J mice [2]; daily IP dose 3 mg/kg, N = 10) was 43.1 U/L. The Albumin (C57BL/6J mice [2]; daily IP dose 3 mg/kg, N = 10) was 2.8 g/dL, the Alkaline phosphatase (C57BL/6J mice [2]; daily IP dose 3 mg/kg, N = 10) was 104.4 U/L and the Aspartate aminotransferase (C57BL/6J mice [2]; daily IP dose 3 mg/kg, N = 10) was 150.9 U/L. The Blood urea nitrogen (C57BL/6J mice [2]; daily IP dose 3 mg/kg, N = 10) was 22.3 mg/dL, the Cholesterol (C57BL/6J mice [2]; daily IP dose 3 mg/kg, N = 10) was 80.9 mg/dL and the Creatinine (C57BL/6J mice [2]; daily IP dose 3 mg/kg, N = 10) was 0.3 mg/dL. For the same molecule, the Glucose (C57BL/6J mice [2]; daily IP dose 3 mg/kg, N = 10) was 256.7 mg/dL, the Lactate dehydrogenase (C57BL/6J mice [2]; daily IP dose 3 mg/kg, N = 10) was 507.0 U/L and the Total bilirubin (C57BL/6J mice [2]; daily IP dose 3 mg/kg, N = 10) was 0.2 mg/dL. For the same molecule, the Total protein (C57BL/6J mice [2]; daily IP dose 3 mg/kg, N = 10) was 4.7 g/dL, the Alanine aminotransferase (C57BL/6J mice [2]; daily IP dose 10 mg/kg, N = 9) was 38.4 U/L and the Albumin (C57BL/6J mice [2]; daily IP dose 10 mg/kg, N = 9) was 2.7 g/dL. The Alkaline phosphatase (C57BL/6J mice [2]; daily IP dose 10 mg/kg, N = 9) was 106.1 U/L, the Aspartate aminotransferase (C57BL/6J mice [2]; daily IP dose 10 mg/kg, N = 9) was 236.2 U/L and the Blood urea nitrogen (C57BL/6J mice [2]; daily IP dose 10 mg/kg, N = 9) was 24.1 mg/dL. For the same molecule, the Creatinine (C57BL/6J mice [2]; daily IP dose 10 mg/kg, N = 9) was 0.2 mg/dL, the Glucose (C57BL/6J mice [2]; daily IP dose 10 mg/kg, N = 9) was 233.9 mg/dL and the Lactate dehydrogenase (C57BL/6J mice [2]; daily IP dose 10 mg/kg, N = 9) was 483.0 U/L. The Total bilirubin (C57BL/6J mice [2]; daily IP dose 10 mg/kg, N = 9) was 0.2 mg/dL, the Total protein (C57BL/6J mice [2]; daily IP dose 10 mg/kg, N = 9) was 4.6 g/dL and the Cholesterol (C57BL/6J mice [2]; daily IP dose 10 mg/kg, N = 9, p < 0.01 vs control) was 56.8** mg/dL. The “Estimated amount of CLR01 entering the brain per day” value [3] was ~ 200 fmol, the “Effect on transthyretin pathology” value (transthyretin) was “significant decrease in transthyretin deposition” and the Stability [4] was 100%. The “Effect on AD-like brain pathology” value (3×Tg mouse model of AD; SC, 40 μg/kg/day) was “significant decrease in amyloid plaque burden and hyperphosphorylated tau”, the “Effect on APP processing” value (3×Tg mouse model of AD; treated AD mice) was “did not affect processing of amyloid β-protein precursor (APP)” and the IC50 [5] was 3.3 µM. For the same molecule, the “Single non-lethal dose relative to the efficacious dose” value (C57BL/6J mice [6]; 100 mg/kg single dose) was 2,500 fold, the Alanine aminotransferase (C57BL/6J mice [6]; [9]) was 36.1 U/L and the Albumin (C57BL/6J mice [6]; [9]) was 2.3 g/dL. The Alkaline phosphatase (C57BL/6J mice [6]; [9]) was 126.1 U/L, the Aspartate aminotransferase (C57BL/6J mice [6]; [9]) was 89.5 U/L and the Blood urea nitrogen (C57BL/6J mice [6]; [9]) was 19.8 mg/dL. The Cholesterol (C57BL/6J mice [6]; [9]) was 91.5 mg/dL, the Creatinine (C57BL/6J mice [6]; [9]) was 0.2 mg/dL and the Glucose (C57BL/6J mice [6]; [9]) was 297.8 mg/dL. It also gave a Lactate dehydrogenase (C57BL/6J mice [6]; [9]) of 325.2 U/L, a Total bilirubin (C57BL/6J mice [6]; [9]) of 0.2 mg/dL and a Total protein (C57BL/6J mice [6]; [9]) of 3.7 g/dL. The Albumin (C57BL/6J mice [6]; [10]) was 1.9 g/dL, the Alkaline phosphatase (C57BL/6J mice [6]; [10]) was 101.5 U/L and the Blood urea nitrogen (C57BL/6J mice [6]; [10]) was 22.0 mg/dL. The Creatinine (C57BL/6J mice [6]; [10]) was 0.4 mg/dL, the Total bilirubin (C57BL/6J mice [6]; [10]) was 0.3 mg/dL and the Total protein (C57BL/6J mice [6]; [10]) was 3.6 g/dL. The Alanine aminotransferase (C57BL/6J mice [6]; [11]) was 1282.9*** U/L, the Glucose (C57BL/6J mice [6]; [11]) was 104.3*** mg/dL and the Lactate dehydrogenase (C57BL/6J mice [6]; [11]) was 2439.8*** U/L. For the same molecule, the Aspartate aminotransferase (C57BL/6J mice [6]; [12]) was 565.3** U/L, the Cholesterol (C57BL/6J mice [6]; [12]) was 20.8** mg/dL and the “Behavior (levels and type of activity and grooming)” value (C57BL/6J mice [6]; single IP 10 mg/kg) was “behaved indistinguishably from control mice”. For the same molecule, the “Incidence of liver degeneration and necrosis” value (C57BL/6J mice [6]; single IP 10 mg/kg, 24 h) was “one of eight”, the “Duration of decreased activity and droopy eyelids in some mice” value (C57BL/6J mice [6]; single IP 100 mg/kg) was “up to 2 h” and the “Duration of signs of distress following the injection” value (C57BL/6J mice [6]; single IP 100 mg/kg) was ~ 30 min. The Behavior after injection (C57BL/6J mice [6]; single IP 100 mg/kg, 2-m old WT mice) was “obvious signs of distress”, the Survival (C57BL/6J mice [6]; single IP 100 mg/kg, 24 h) was “all the mice in the high-dose group survived” and the Liver histopathology (C57BL/6J mice [6]; single IP 100 mg/kg, 24 h, all mice, centrilobular and midlobular regions) was “liver degeneration and necrosis”. For the same molecule, the “Histopathology of heart, lung, spleen and brain” value (C57BL/6J mice [6]; single IP 10 or 100 mg/kg, 24 h) was “indistinguishable from those of control mice”, the Lethal dose (C57BL/6J mice [6]; single IP injection, mice) was over 100 mg/kg and the “Solubility in aqueous solutions” value [7] was “soluble at millimolar concentrations”.
